These results are taken from patent US20040248954A1, “Cycloalkylsulfanyl substituted benzo[b]thiophenes as therapeutic agents” (priority 2003, published 2004).

Each structure is given as a SMILES string.

The target of this assay is T1, p101/p110γ protein (PI3Kγ) (Homo sapiens, UniProt P48736).
T1 construct: HA; made in house; host or cells: Spodoptera frugiperda (Sf9) cells, baculovirus coinfection
T1 sequence (P48736 whole entry, species assumed): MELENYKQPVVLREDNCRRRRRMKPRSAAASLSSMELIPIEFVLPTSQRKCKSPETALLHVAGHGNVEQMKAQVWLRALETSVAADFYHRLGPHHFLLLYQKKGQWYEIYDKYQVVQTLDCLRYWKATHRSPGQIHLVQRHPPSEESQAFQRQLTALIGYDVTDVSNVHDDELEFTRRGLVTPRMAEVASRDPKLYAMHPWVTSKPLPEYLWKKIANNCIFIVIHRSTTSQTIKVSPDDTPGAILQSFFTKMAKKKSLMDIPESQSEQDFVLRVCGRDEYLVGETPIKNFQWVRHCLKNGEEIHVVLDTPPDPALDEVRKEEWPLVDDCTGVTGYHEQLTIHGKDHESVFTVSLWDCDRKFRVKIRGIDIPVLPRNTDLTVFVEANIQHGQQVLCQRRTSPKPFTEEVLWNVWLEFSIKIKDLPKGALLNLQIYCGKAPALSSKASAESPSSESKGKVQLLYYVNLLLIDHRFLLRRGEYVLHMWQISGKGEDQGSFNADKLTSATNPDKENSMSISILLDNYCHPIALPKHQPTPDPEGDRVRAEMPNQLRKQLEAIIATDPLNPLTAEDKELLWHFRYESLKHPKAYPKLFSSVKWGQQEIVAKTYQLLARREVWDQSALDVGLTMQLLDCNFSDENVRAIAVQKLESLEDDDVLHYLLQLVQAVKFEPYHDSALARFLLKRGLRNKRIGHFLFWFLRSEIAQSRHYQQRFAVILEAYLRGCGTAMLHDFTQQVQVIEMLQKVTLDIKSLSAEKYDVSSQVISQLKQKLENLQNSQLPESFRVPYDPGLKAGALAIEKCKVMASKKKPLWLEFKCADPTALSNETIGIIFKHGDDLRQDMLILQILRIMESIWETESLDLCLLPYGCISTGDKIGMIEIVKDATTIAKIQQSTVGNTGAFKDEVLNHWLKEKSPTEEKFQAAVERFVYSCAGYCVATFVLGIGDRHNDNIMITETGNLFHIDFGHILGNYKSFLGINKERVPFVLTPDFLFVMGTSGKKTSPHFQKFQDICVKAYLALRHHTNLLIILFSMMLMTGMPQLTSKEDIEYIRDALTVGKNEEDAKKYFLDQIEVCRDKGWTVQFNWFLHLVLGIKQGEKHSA
T1 sequence (Q8WYR1 whole entry partner, species assumed): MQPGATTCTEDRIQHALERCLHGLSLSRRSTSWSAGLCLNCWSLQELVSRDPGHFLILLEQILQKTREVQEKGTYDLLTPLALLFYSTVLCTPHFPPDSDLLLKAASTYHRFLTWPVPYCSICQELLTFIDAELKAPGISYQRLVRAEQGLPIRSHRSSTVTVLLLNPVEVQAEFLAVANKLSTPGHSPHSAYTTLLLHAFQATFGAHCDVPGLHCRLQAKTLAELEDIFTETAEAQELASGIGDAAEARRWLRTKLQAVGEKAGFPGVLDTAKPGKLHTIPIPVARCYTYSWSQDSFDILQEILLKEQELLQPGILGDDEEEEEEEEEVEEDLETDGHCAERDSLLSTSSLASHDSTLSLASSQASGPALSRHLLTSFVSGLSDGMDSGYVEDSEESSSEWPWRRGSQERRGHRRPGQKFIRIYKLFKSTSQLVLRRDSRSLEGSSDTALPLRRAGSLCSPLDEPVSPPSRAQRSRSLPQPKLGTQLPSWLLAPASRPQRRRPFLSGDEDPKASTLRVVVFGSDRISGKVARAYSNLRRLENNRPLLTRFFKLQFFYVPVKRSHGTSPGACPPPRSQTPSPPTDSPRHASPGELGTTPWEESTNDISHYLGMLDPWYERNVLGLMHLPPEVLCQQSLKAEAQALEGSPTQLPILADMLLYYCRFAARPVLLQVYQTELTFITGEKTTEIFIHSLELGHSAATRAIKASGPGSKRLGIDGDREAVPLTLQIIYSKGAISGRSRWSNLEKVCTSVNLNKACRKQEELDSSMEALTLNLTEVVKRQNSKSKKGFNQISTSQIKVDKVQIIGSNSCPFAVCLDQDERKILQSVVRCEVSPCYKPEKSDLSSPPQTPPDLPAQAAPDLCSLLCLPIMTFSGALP
Description: PI3Kγ in vitro kinase assay. The conditions noted are these: purified recombinant p101/p110γ with G protein β1/γ2 subunits, 20 μM ATP, 25 μM PIP2, 20 minutes at room temperature. Format: biochemical. Here is the method:
Spodtera frugiperda cells, grown in ESF921 media, were coinfected with baculovirus expressing a glu-tagged pO1 and baculovirus expressing an HA-tagged p110γ, at a 3:1 ratio of p101 baculovirus to p110γ baculovirus. Sf9 cells were grown to 1×10^7 total cells/mL in 10 L bioreactors and harvested 48-72 hours post infection. Samples of infected cells were then tested for expression of p101/p110γ PI3 kinase by immunoprecipitation and Western Blot analysis methods (see below).
To purify PI3Kγ, 4 volumes of room temperature hypotonic lysis buffer (1 mM MgCl2, 1 mM DTT, 5 mM EGTA, 1 mM Pefabloc, 0.5 μM aprotinin, 5 μM leupeptin, 2 μM pepstatin, 5 μM E64, pH 8) per gram of cell paste, was poured onto frozen cell pellets with stirring, then lysed in a nitrogen “bomb” at 400 psi (599HC T316, Parr Instrument Co, Moline, Ill.). NaCl was added to 150 mM, and sodium cholate was added to 1% and mixed for another 45 minutes. The lysates were clarified by centrifugation for 25 minutes at 14,000 rpm. The lysates were then loaded over anti-glu-linked Protein-G Sepaharose beads (Covance Research Products, Richmond, Calif.) using 20 mL resin/50 g cell paste. The column was washed with 15 volumes of wash buffer (1 mM DTT, 0.2 mM EGTA, 1 mM Pefabloc, 0.5 μM aprotinin, 5 μM leupeptin, 2 μM pepstatin, 5 μM E64, 150 mM NaCl, 1% sodium cholate, pH 8). PI3Kγ was eluted with 6 column volumes of wash buffer that contain 100 μg/mL of a peptide that competes for binding of the glu tag. The column fractions with the eluted protein (determined by taking OD280 readings) were collected and dialyzed in 0.2 mM EGTA, 1 mM DTT, 1 mM Pefabloc, 5 μM leupeptin, 0.5% sodium cholate, 150 mM NaCl, and 50% glycerol, pH 8. The fractions were stored at −80° C. until further use.
Spodtera frugiperda cells were coinfected with baculovirus expressing a glu-tagged G protein β1 and baculovirus expressing a G protein β2, at a 1:1 ratio of glu-tagged G protein β1 baculovirus to G protein β2 baculovirus. Sf9 cells are grown in 10 L bioreactors and harvested 48-72 hours post infection. Samples of infected cells were tested for G protein β1/β2 expression by Western Blot analysis, as described below. Cell lysates were homogenized and loaded onto a column of glu-tagged beads as in Biological Example 1 and competed off the column with a glu peptide and processed as described in Biological Example 1.
The inhibitory properties of the compounds in Table 1 were assayed in an in vitro PI3K assay. In a 96-well polypropylene plate, each well was spotted with 2 μL of 50 times the desired final concentration of compound in DMSO. Purified recombinant p101/p110γ protein (0.03 μg; ˜2.7 nM) and G protein β1/γ2 subunits (0.09 μg; ˜57.7 nM) for each reaction was combined in the assay buffer (30 mM HEPES, 100 mM NaCl, 1 mM EGTA, and 1 mM DTT). ATP and [γ-^32P-ATP] (0.09 μCi) were added to this mixture so that the final ATP concentration in the reaction was 20 μM. Lipid micelles were formed by sonicating phosphatidylinositol4,5-diphosphate (PIP2), phosphatidylethanolamine (PE), and Na-cholate in the assay buffer for 10 minutes, adding MgCl2 and incubating on ice for 20 minutes, for final concentrations of 25 μM PIP2, 300 μM PE, 0.02% Na-cholate, and 10 mM MgCl2 in the reaction. The reactions were started by adding equal volumes lipid and enzyme mixture in a total volume of 50 μL, allowed to run for 20 minutes at room temperature, and stopped with 100 μL 75 mM H3PO4. The lipid product was transderred to a glass fiber filter plate and washed with 75 mM H3PO4 severa; times. The presence of radioactive lipid product (PIP3) was measured by adding Wallac Optiphase mix to each well and counting in a Wallac 1450 Trilux plate reader (perkinElmer Life Sciences Inc., Boston, Mass. 02118). The IC50 for each compound tested is reported in μM in Table 1: […]
Regarding `COCc1cc2sc(C(=O)Nc3nnn[nH]3)c(SC3CCCCC3)c2cc1OC` [Example 12, 3-Cyclohexylsulfanyl-5-methoxy-6-methoxymethyl-benzo[b]thiophene-2-carboxylic acid (1H-tetrazol-5-yl)-amide], the IC50 (usually the concentration that inhibits the measured activity by half) is 495 nM.

Take `COc1cc2c(SC3CCCCC3)c(C(=O)Nc3nnn[nH]3)sc2cc1COCc1ccccc1` [Example 14, 6-Benzyloxymethyl-3-cyclohexylsulfanyl-5-methoxy-benzo[b]thiophene-2-carboxylic acid (1H-tetrazol-5-yl)-amide]: the half-maximal inhibitory concentration (IC50) came out at 640 nM.

On to `COc1ccc2sc(C(=O)Nc3nnn[nH]3)c(SC3CCCCC3)c2c1` [Example 4, 3-cyclohexylsulfanyl-5-methoxy-benzo[b]thiophene-2-carboxylic acid (1H-tetrazol-5-yl)-amide], for which the half-maximal inhibitory concentration (IC50) was 382 nM.

With `CCOCc1cc2sc(C(=O)Nc3nnn[nH]3)c(SC3CCCCC3)c2cc1OC` [Example 13, 3-Cyclohexylsulfanyl-6-ethoxymethyl-5-methoxy-benzo[b]thiophene-2-carboxylic acid (1H-tetrazol-5-yl)-amide], the IC50 was 175 nM.

As for `COc1cc2sc(C(=O)Nc3nnn[nH]3)c(SC3CCCCC3)c2cc1C` [Example 8, 3-Cyclohexylsulfanyl-6-methoxy-5-methyl-benzo[b]thiophene-2-carboxylic acid (1H-tetrazol-5-yl)-amide], the half-inhibitory concentration (IC50) is 47 nM.

`COc1cc2sc(C(=O)Nc3nnn[nH]3)c(SCC3CC3)c2cc1OC` [Example 15, 3-Cyclopropylmethylsulfanyl-5,6-dimethoxy-benzo[b]thiophene-2-carboxylic acid (1H-tetrazol-5-yl)-amide]: the IC50 amounted to 243 nM.

Turning to `CCOc1ccc2sc(C(=O)Nc3nnn[nH]3)c(SC3CCCC3)c2c1` [Example 9, 3-Cyclopentylsulfanyl-5-ethoxy-benzo[b]thiophene-2-carboxylic acid (1H-tetrazol-5-yl)-amide], the IC50 amounted to 2130 nM.

Consider `COc1cc2sc(C(=O)Nc3nnn[nH]3)c(SC3CCCCC3)c2cc1OC` [Example 6, 3-Cyclohexylsulfanyl-5,6-dimethoxy-benzo[b]thiophene-2-carboxylic acid (1H-tetrazol-5-yl)-amide], for which the IC50 came to 121 nM.

Turning to `COc1cc2sc(C(=O)Nc3nnn[nH]3)c(SCC3CCCCC3)c2cc1OC` [Example 2, 3-cyclohexylmethylsulfanyl-5,6-dimethoxy-benzo[b]thiophene-2-carboxylic acid (1H-tetrazol-5-yl)-amide], the IC50 stood at 3810 nM.

`COc1cc2sc(C(=O)Nc3nnn[nH]3)c(SC3CCCC3)c2cc1OC` [Example 5, 3-cyclopentylsulfanyl-5,6-dimethoxy-benzo[b]thiophene-2-carboxylic acid (1H-tetrazol-5-yl)-amide]: the IC50 amounted to 249 nM.

Regarding `COc1ccc2sc(C(=O)Nc3nnn[nH]3)c(SCC3CCCCC3)c2c1` [Example 1, 3-Cyclohexylmethylsulfanyl-5-methoxy-benzo[b]thiophene-2-carboxylic acid (1H-tetrazol-5-yl)-amide], the IC50 amounted to 92 nM.

In the case of `COc1cc2c(SC3CCCCC3)c(C(=O)Nc3nnn[nH]3)sc2cc1C` [Example 11, 3-Cyclohexylsulfanyl-5-methoxy-6-methyl-benzo[b]thiophene-2-carboxylic acid (1H-tetrazol-5-yl)-amide], the IC50 worked out at 35 nM.

In the case of `CCOc1ccc2sc(C(=O)Nc3nnn[nH]3)c(SC3CCCCC3)c2c1` [Example 10, 3-Cyclohexylsulfanyl-5-ethoxy-benzo[b]thiophene-2-carboxylic acid (1H-tetrazol-5-yl)-amide], the IC50 stood at 1550 nM.

Take `COc1ccc2sc(C(=O)Nc3nnn[nH]3)c(SC3CCCC3)c2c1` [Example 3, 3-cyclopentylsulfanyl-5-methoxy-benzo[b]thiophene-2-carboxylic acid (1H-tetrazol-5-yl)-amide]: the IC50 worked out at 1190 nM.

For the compound `COc1cc2sc(C(=O)Nc3nnn[nH]3)c(SC3CCCC3)c2cc1C` [Example 7, 3-Cyclopentylsulfanyl-6-methoxy-5-methyl-benzo[b]thiophene-2-carboxylic acid (1H-tetrazol-5-yl)-amide], the IC50 was 118 nM.
